What was measured:
Type in all cases: biochemical
typical phosphatases = test: Phosphate release from substrate, summary for typical phosphatases; conditions: all tested typical phosphatases, compared with fructose 6-phosphate
Protocol: (§1) Enzymatic assays were carried out in microtitre plates in 100 μl of reaction mixture. The reaction mixture for acid phytases and phosphatases included: 10 mM of substrate in 200 mM sodium acetate buffer, pH 5.5 containing 0.8 mM CaCl2. For alkaline phytases and phosphatases the same conditions were used except sodium acetate buffer was replaced with 200 mM Tris*HCl buffer, pH 7.5. The reactions were allowed to proceed for 1 h at 37° C. after which time the released phosphate was measured by a modification of a known procedure (Heinonen J. K., Lahti R. J. Anal Biochem. 113 (2), 313-317 (1981)). Briefly, 200 pLI of a freshly prepared AMM solution ([…], 15 mM ammonium molybdate and acetone—1:1:2) was added to the 100 μl reaction mixture in each microtitre plate well. The absorbance at 390 nm was measured not earlier than 10 min and not later than 30 min after addition of the AMM reagent. The amount of phosphate was determined by building a calibration curve with phosphate solutions of known concentrations.
(§2) Both phytases and phosphatases catalyse the hydrolysis of phosphoesters. Thus, the difference between these two groups of enzymes is quantitative rather than qualitative and can be defined as the relative efficiency in hydrolysis of phytate and simple monophosphoesters such as e.g. glucose 6-phosphate or fructose 6-phosphate. […]

[1] = system: Peniophora lycii phytase (Ronozyme^R); test: Phosphate release from substrate by enzyme, microtitre plate, molybdate detection; conditions: 10 mM substrate, pH 5.5, 1 h, 37° C.
Protocol: as §1
(§3) Both phytases and phosphatases catalyse the hydrolysis of phosphoesters. Thus, the difference between these two groups of enzymes is quantitative rather than qualitative and can be defined as the relative efficiency in hydrolysis of phytate and simple monophosphoesters such as e.g. glucose 6-phosphate or fructose 6-phosphate. Phosphatases tend to be relatively inefficient in hydrolysing phytate, and, conversely, most phytases hydrolyse mono-substituted sugar phosphates inefficiently. To test whether polyphosphorylated polyhydroxybenzenes can be used as mimics of phytate we have tested phosphate release from hexaphospho-benzenehexaol and fructose 6-phosphate by several different phytases and phosphatases. Phytases from Aspergillus niger (Natuphos^R), Escherichia coli (Phyzyme XP^R) and Peniophora lycii (Ronozyme^R) as well as potato acid phosphatase were assayed at pH 5.5 while alkaline bacterial phosphatase calf intestinal phosphatase and shrimp phosphatase were assayed at pH 7.5.

[2] = system: Calf intestine phosphatase; test: as above; conditions: 10 mM substrate, pH 7.5, 1 h, 37° C.
Protocol: as §1, §3

[3] = target: Bacterial alkaline phosphatase (Escherichia coli, UniProt P00634); test: as above; conditions: 10 mM substrate, pH 7.5, 1 h, 37° C.
Chain of Bacterial alkaline phosphatase (P00634 22-471): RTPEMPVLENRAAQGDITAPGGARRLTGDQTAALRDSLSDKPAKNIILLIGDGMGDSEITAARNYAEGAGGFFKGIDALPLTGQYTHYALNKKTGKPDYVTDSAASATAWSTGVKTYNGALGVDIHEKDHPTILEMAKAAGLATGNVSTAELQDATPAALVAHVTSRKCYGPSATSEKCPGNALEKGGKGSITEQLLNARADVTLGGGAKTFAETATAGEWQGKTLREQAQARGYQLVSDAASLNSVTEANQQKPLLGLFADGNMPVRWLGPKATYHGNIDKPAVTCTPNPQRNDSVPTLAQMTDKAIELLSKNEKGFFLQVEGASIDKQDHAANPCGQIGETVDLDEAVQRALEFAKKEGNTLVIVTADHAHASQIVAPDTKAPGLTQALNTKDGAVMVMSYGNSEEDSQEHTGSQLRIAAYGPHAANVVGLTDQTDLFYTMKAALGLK
Protocol: as §1, §3

[4] = target: T1, A. niger phytase (Natuphos^R) (Aspergillus niger, UniProt P34752); test: as above; conditions: 10 mM substrate, pH 5.5, 1 h, 37° C.
T1 construct: purchased
T1 sequence (P34752 24-467): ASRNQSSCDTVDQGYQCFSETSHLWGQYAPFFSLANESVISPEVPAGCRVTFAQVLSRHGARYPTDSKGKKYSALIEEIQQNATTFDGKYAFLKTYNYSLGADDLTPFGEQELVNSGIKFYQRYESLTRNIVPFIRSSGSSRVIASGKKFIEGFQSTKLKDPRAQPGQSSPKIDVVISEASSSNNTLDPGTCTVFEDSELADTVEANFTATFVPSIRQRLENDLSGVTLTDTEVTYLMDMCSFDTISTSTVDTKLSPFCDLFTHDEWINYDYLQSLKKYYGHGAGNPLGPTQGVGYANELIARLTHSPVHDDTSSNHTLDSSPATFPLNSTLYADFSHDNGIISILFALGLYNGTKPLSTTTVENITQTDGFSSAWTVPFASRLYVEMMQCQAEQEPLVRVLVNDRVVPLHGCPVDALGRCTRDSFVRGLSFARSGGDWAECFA
Protocol: as §1, §3

Shrimp phosphatase = test: as above; conditions: 10 mM substrate, pH 7.5, 1 h, 37° C.
Protocol: as §1, §3

Potato acid phosphatase = test: as above; conditions: 10 mM substrate, pH 5.5, 1 h, 37° C.
Protocol: as §1, §3

[5] = target: T2, E. coil phytase (Phyzyme XP^R) (Escherichia coli, UniProt P07102); test: as above; conditions: 10 mM substrate, pH 5.5, 1 h, 37° C.
T2 construct: purchased
T2 sequence (P07102 23-432): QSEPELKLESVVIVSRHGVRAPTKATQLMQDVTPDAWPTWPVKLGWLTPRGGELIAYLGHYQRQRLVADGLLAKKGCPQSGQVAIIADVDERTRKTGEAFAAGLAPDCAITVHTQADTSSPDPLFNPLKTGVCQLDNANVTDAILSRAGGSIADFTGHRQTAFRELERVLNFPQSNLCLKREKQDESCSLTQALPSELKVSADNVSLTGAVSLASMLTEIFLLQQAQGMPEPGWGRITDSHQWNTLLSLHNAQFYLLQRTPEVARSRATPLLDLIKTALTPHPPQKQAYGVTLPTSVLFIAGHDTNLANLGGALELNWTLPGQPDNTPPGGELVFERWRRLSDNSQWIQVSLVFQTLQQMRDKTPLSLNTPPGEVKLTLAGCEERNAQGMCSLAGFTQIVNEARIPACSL
Protocol: as §1, §3

all tested phytases = test: Phosphate release from substrate, summary for all tested phytases; conditions: compared with fructose 6-phosphate
Protocol: as §1, §2

Row | Compound | Quality as substrate for typical phosphatases (in words) (typical phosphatases) | Ratio of phosphate-releasing activities with the substrate and fructose 6-P [1] | Ratio of phosphate-releasing activities with the substrate and fructose 6-P [2] | Ratio of phosphate-releasing activities with the substrate and fructose 6-P [3] | Ratio of phosphate-releasing activities with the substrate and fructose 6-P [4] | Ratio of phosphate-releasing activities with the substrate and fructose 6-P (Shrimp phosphatase) | Ratio of phosphate-releasing activities with the substrate and fructose 6-P (Potato acid phosphatase) | Ratio of phosphate-releasing activities with the substrate and fructose 6-P [5] | Quality as substrate for all tested phytases (in words) (all tested phytases)
1 | O=P(O)(O)Oc1cc(OP(=O)(O)O)cc(OP(=O)(O)O)c1 | good substrate | 250 | 1.0 | 1.0 | 280 | 3.8 | 3.9 | 500 | good substrate
2 | O=P(O)(O)Oc1c(OP(=O)(O)O)c(OP(=O)(O)O)c(OP(=O)(O)O)c(OP(=O)(O)O)c1OP(=O)(O)O [benzenehexaol hexaphosphate, Benzenehexaol hexaphosphate] | the opposite is true | 2.7 | 0.01 | 0.01 | 250 | 0.1 | 0.23 | 122 | much better substrate than fructose 6-phosphate

Source: patent US20090098589A1 (priority 2006, published 2009)
